Data: paper PMC10364322, “Evaluation of chronic drug-induced electrophysiological and cytotoxic effects using human-induced pluripotent stem cell-derived cardiomyocytes (hiPSC-CMs)” (Frontiers in Pharmacology, 2023)
Where two headings read alike, the source gives them in different places.

Test system: hiPSC-CMs (iCell-Cardiomyocytes^2)
In short: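 Spontaneous field potentials and impedance recorded by MEA at 37°C, 5% CO2 in hiPSC-CM monolayers (50 K/well, fibronectin-coated), 5-min baseline before compound; final DMSO 0.1%. Values are percent change from baseline, mean ± SD, compared with DMSO by Wilcoxon-Mann Whitney, interpreted against DMSO tolerance intervals.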

BR (beating rate), % change from baseline (0.3 µM, 2h): 0±1% | Beating below threshold, number of observations/total well numbers (0.3 µM, 2h): 0/5 | Cessation of beating, number of observations/total well numbers (0.3 µM, 2h): 0/5 | EAD, number of observations/total well numbers (0.3 µM, 2h): 0/5 | FPD (field-potential duration), % change from baseline (0.3 µM, 2h): 2.5±1.9% | FPDc (field-potential duration corrected by beat-rate), % change from baseline (0.3 µM, 2h): 2.6±1.7% | Flat T-wave-like, number of observations/total well numbers (0.3 µM, 2h): 0/5 | BR (beating rate), % change from baseline (0.3 µM, 24h): 4±2% | Beating below threshold, number of observations/total well numbers (0.3 µM, 24h): 0/5 | Cessation of beating, number of observations/total well numbers (0.3 µM, 24h): 0/5 | EAD, number of observations/total well numbers (0.3 µM, 24h): 0/5 | FPD (field-potential duration), % change from baseline (0.3 µM, 24h): 2.5±6.9% | FPDc (field-potential duration corrected by beat-rate), % change from baseline (0.3 µM, 24h): 3.8±6.8% | Flat T-wave-like, number of observations/total well numbers (0.3 µM, 24h): 1/5 | BR (beating rate), % change from baseline (0.3 µM, 48h): -1±1% | Beating below threshold, number of observations/total well numbers (0.3 µM, 48h): 0/5 | Cessation of beating, number of observations/total well numbers (0.3 µM, 48h): 0/5 | EAD, number of observations/total well numbers (0.3 µM, 48h): 0/5 | FPD (field-potential duration), % change from baseline (0.3 µM, 48h): 5.1±4.5% | FPDc (field-potential duration corrected by beat-rate), % change from baseline (0.3 µM, 48h): 4.5±4.4% | Flat T-wave-like, number of observations/total well numbers (0.3 µM, 48h): 0/5 | BR (beating rate), % change from baseline (0.3 µM, 72h): -6±3% | Beating below threshold, number of observations/total well numbers (0.3 µM, 72h): 0/5 | Cessation of beating, number of observations/total well numbers (0.3 µM, 72h): 0/5 | EAD, number of observations/total well numbers (0.3 µM, 72h): 0/5 | FPD (field-potential duration), % change from baseline (0.3 µM, 72h): 1.8±4.6% | FPDc (field-potential duration corrected by beat-rate), % change from baseline (0.3 µM, 72h): -0.2±4.7% | Flat T-wave-like, number of observations/total well numbers (0.3 µM, 72h): 0/5 | BR (beating rate), % change from baseline (0.3 µM, 96h): 0±7% | Beating below threshold, number of observations/total well numbers (0.3 µM, 96h): 0/5 | Cessation of beating, number of observations/total well numbers (0.3 µM, 96h): 0/5 | EAD, number of observations/total well numbers (0.3 µM, 96h): 0/5 | FPD (field-potential duration), % change from baseline (0.3 µM, 96h): 2.4±5.7% | FPDc (field-potential duration corrected by beat-rate), % change from baseline (0.3 µM, 96h): 2.7±6.2% | Flat T-wave-like, number of observations/total well numbers (0.3 µM, 96h): 0/5 | BR (beating rate), % change from baseline (1 µM, 2h): 0±1% | Beating below threshold, number of observations/total well numbers (1 µM, 2h): 0/4 | Cessation of beating, number of observations/total well numbers (1 µM, 2h): 0/4 | EAD, number of observations/total well numbers (1 µM, 2h): 0/4 | FPD (field-potential duration), % change from baseline (1 µM, 2h): 0.8±4.5% | FPDc (field-potential duration corrected by beat-rate), % change from baseline (1 µM, 2h): 1.1±4.5% | Flat T-wave-like, number of observations/total well numbers (1 µM, 2h): 0/4 | BR (beating rate), % change from baseline (1 µM, 24h): 6±1% | Beating below threshold, number of observations/total well numbers (1 µM, 24h): 0/4 | Cessation of beating, number of observations/total well numbers (1 µM, 24h): 0/4 | EAD, number of observations/total well numbers (1 µM, 24h): 0/4 | FPD (field-potential duration), % change from baseline (1 µM, 24h): 13±11.4% | FPDc (field-potential duration corrected by beat-rate), % change from baseline (1 µM, 24h): 15.1±11.7% | Flat T-wave-like, number of observations/total well numbers (1 µM, 24h): 0/4 | BR (beating rate), % change from baseline (1 µM, 48h): 0±2% | Beating below threshold, number of observations/total well numbers (1 µM, 48h): 0/4 | Cessation of beating, number of observations/total well numbers (1 µM, 48h): 0/4 | EAD, number of observations/total well numbers (1 µM, 48h): 0/4 | FPD (field-potential duration), % change from baseline (1 µM, 48h): 12.6±11.7% | FPDc (field-potential duration corrected by beat-rate), % change from baseline (1 µM, 48h): 12.5±11.6% | Flat T-wave-like, number of observations/total well numbers (1 µM, 48h): 0/4 | BR (beating rate), % change from baseline (1 µM, 72h): 0±5% | Beating below threshold, number of observations/total well numbers (1 µM, 72h): 0/4 | Cessation of beating, number of observations/total well numbers (1 µM, 72h): 0/4 | EAD, number of observations/total well numbers (1 µM, 72h): 0/4 | FPD (field-potential duration), % change from baseline (1 µM, 72h): 8.9±8.5% | FPDc (field-potential duration corrected by beat-rate), % change from baseline (1 µM, 72h): 8.8±8.8% | Flat T-wave-like, number of observations/total well numbers (1 µM, 72h): 0/4 | BR (beating rate), % change from baseline (1 µM, 96h): 2±3% | Beating below threshold, number of observations/total well numbers (1 µM, 96h): 0/4 | Cessation of beating, number of observations/total well numbers (1 µM, 96h): 0/4 | EAD, number of observations/total well numbers (1 µM, 96h): 0/4 | FPD (field-potential duration), % change from baseline (1 µM, 96h): 9.2±9.9% | FPDc (field-potential duration corrected by beat-rate), % change from baseline (1 µM, 96h): 10.3±10.9% | Flat T-wave-like, number of observations/total well numbers (1 µM, 96h): 0/4 | BR (beating rate), % change from baseline (3 µM, 72h): 6±4% | Beating below threshold, number of observations/total well numbers (3 µM, 72h): 0/5 | Cessation of beating, number of observations/total well numbers (3 µM, 72h): 0/5 | EAD, number of observations/total well numbers (3 µM, 72h): 0/5 | FPD (field-potential duration), % change from baseline (3 µM, 72h): 1.7±4.6% | FPDc (field-potential duration corrected by beat-rate), % change from baseline (3 µM, 72h): 3.6±3.3% | Flat T-wave-like, number of observations/total well numbers (3 µM, 72h): 0/5 | BR (beating rate), % change from baseline (3 µM, 96h): 14±5 % | Beating below threshold, number of observations/total well numbers (3 µM, 96h): 0/5 | Cessation of beating, number of observations/total well numbers (3 µM, 96h): 0/5 | EAD, number of observations/total well numbers (3 µM, 96h): 0/5 | FPD (field-potential duration), % change from baseline (3 µM, 96h): -4.1±6.5% | FPDc (field-potential duration corrected by beat-rate), % change from baseline (3 µM, 96h): 0.1±7% | Flat T-wave-like, number of observations/total well numbers (3 µM, 96h): 0/5 | BR (beating rate), % change from baseline (3 µM, 2h): 2±4% | Beating below threshold, number of observations/total well numbers (3 µM, 2h): 0/5 | Cessation of beating, number of observations/total well numbers (3 µM, 2h): 0/5 | EAD, number of observations/total well numbers (3 µM, 2h): 0/5 | FPD (field-potential duration), % change from baseline (3 µM, 2h): 3.7±3.5% | FPDc (field-potential duration corrected by beat-rate), % change from baseline (3 µM, 2h): 4.4±2.3% | Flat T-wave-like, number of observations/total well numbers (3 µM, 2h): 0/5 | BR (beating rate), % change from baseline (3 µM, 24h): 7±0% | Beating below threshold, number of observations/total well numbers (3 µM, 24h): 0/5 | Cessation of beating, number of observations/total well numbers (3 µM, 24h): 0/5 | EAD, number of observations/total well numbers (3 µM, 24h): 0/5 | FPD (field-potential duration), % change from baseline (3 µM, 24h): 8.9±1.5% | FPDc (field-potential duration corrected by beat-rate), % change from baseline (3 µM, 24h): 11.3±1.4% | Flat T-wave-like, number of observations/total well numbers (3 µM, 24h): 0/5 | BR (beating rate), % change from baseline (3 µM, 48h): 7±2% | Beating below threshold, number of observations/total well numbers (3 µM, 48h): 0/5 | Cessation of beating, number of observations/total well numbers (3 µM, 48h): 0/5 | EAD, number of observations/total well numbers (3 µM, 48h): 0/5 | FPD (field-potential duration), % change from baseline (3 µM, 48h): 2.8±2.5% | FPDc (field-potential duration corrected by beat-rate), % change from baseline (3 µM, 48h): 4.9±2.3% | Flat T-wave-like, number of observations/total well numbers (3 µM, 48h): 0/5 | BR (beating rate), % change from baseline (10 µM, 2h): 1±2% | Beating below threshold, number of observations/total well numbers (10 µM, 2h): 0/5 | Cessation of beating, number of observations/total well numbers (10 µM, 2h): 0/5 | EAD, number of observations/total well numbers (10 µM, 2h): 0/5 | FPD (field-potential duration), % change from baseline (10 µM, 2h): 5.5±2.1% | FPDc (field-potential duration corrected by beat-rate), % change from baseline (10 µM, 2h): 6±2.3% | Flat T-wave-like, number of observations/total well numbers (10 µM, 2h): 0/5 | BR (beating rate), % change from baseline (10 µM, 24h): 10±3% | Beating below threshold, number of observations/total well numbers (10 µM, 24h): 0/5 | Cessation of beating, number of observations/total well numbers (10 µM, 24h): 0/5 | EAD, number of observations/total well numbers (10 µM, 24h): 0/5 | FPD (field-potential duration), % change from baseline (10 µM, 24h): 11.3±10% | FPDc (field-potential duration corrected by beat-rate), % change from baseline (10 µM, 24h): 15.1±11% | Flat T-wave-like, number of observations/total well numbers (10 µM, 24h): 0/5 | BR (beating rate), % change from baseline (10 µM, 48h): 17±3% | Beating below threshold, number of observations/total well numbers (10 µM, 48h): 0/5 | Cessation of beating, number of observations/total well numbers (10 µM, 48h): 0/5 | EAD, number of observations/total well numbers (10 µM, 48h): 0/5 | FPD (field-potential duration), % change from baseline (10 µM, 48h): -0.8±13.7% | FPDc (field-potential duration corrected by beat-rate), % change from baseline (10 µM, 48h): 4.7±14.8% | Flat T-wave-like, number of observations/total well numbers (10 µM, 48h): 1/5 | BR (beating rate), % change from baseline (10 µM, 72h): 26±7 % | Beating below threshold, number of observations/total well numbers (10 µM, 72h): 0/5 | Cessation of beating, number of observations/total well numbers (10 µM, 72h): 0/5 | EAD, number of observations/total well numbers (10 µM, 72h): 0/5 | FPD (field-potential duration), % change from baseline (10 µM, 72h): -10.2±17% | FPDc (field-potential duration corrected by beat-rate), % change from baseline (10 µM, 72h): -2.8±19.3% | Flat T-wave-like, number of observations/total well numbers (10 µM, 72h): 1/5 | BR (beating rate), % change from baseline (10 µM, 96h): 48±6 % | Beating below threshold, number of observations/total well numbers (10 µM, 96h): 0/5 | Cessation of beating, number of observations/total well numbers (10 µM, 96h): 0/5 | EAD, number of observations/total well numbers (10 µM, 96h): 0/5 | FPD (field-potential duration), % change from baseline (10 µM, 96h): -14.5±9.4% | FPDc (field-potential duration corrected by beat-rate), % change from baseline (10 µM, 96h): -2.5±12.4% | Flat T-wave-like, number of observations/total well numbers (10 µM, 96h): 2/5
Structure (SMILES): CC(C)(Sc1cc(C(C)(C)C)c(O)c(C(C)(C)C)c1)Sc1cc(C(C)(C)C)c(O)c(C(C)(C)C)c1 [Probucol]
prolongation of FPD / FPDc (all concentrations tested): did not induce a statistically significant prolongation of the FPD
